Reference: US20120237552A1, “Peptoid Agonists of Nerve Growth Factor and Their Use as Medicaments” (priority 2009, published 2012)
“Also recorded” adds a separate entry of the source.

Experiments:
PC12 cells = assay: PC12 cell differentiation (neurite outgrowth); format: cell-based, rat; conditions: 3 days, peptoids 2 ng/ml to 50 μg/ml, reduced serum (0.5% FBS and 1% HS); compared with NGF 100 ng/ml
Method: PC 12 cell differentiation was measured by plating cells onto collagen-coated 24-wells plates. NGF (100 ng/ml) or the small chemicals at different concentrations were added and the percentage of cells with neurite processes greater than two cell bodies in length were counted after relevant treatment. For each experiment at least 300 cells were randomly measured (Burstein and Greene, 1978).
PC12 cells were maintained at 37° C. in DMEM supplemented with 2.5% FBS, 15% of Horse serum (HS) and penicillin/streptomycin in a humidified 5% CO2 incubator. The cells were grown on 60- and 100-mm tissue culture dishes (Becton Dickinson).
PC 12 cells were cultured for 3 days in the presence of the peptoids (from 2 ng/ml to 50 μg/ml) under reduced serum conditions (0.5% FBS and 1% HS).

RN22 cells = assay: RN22 cell survival under CuSO4 stress (MTT); format: cell-based, rat; conditions: CuSO4 150 μM, 24 h, peptoids 1 ng/ml-10 μg/ml; compared with NGF 100 ng/ml
Method: The library was also tested to assess their capacity to promote cell survival of myelin producing cells. To delineate p75 signalling independent of TrkA, we used a rat schwannoma cell line (RN22) expressing p75, but not TrkA, (Gentry et al., 2000).
The rat schawnnoma cell line RN22 was cultured in 5% CO2 at 37° C. in Dulbecco's modified Eagle's medium (DMEM) with 10% fetal bovine serum (FBS) and penicillin/streptomycin.
RN22 cells were plated at 20,000 cells/well on a 24-well plate in DMEM alone and after allowing the cells to adhere for 3 days, cupper sulphate (CuSO4) (150 μM) was added with or without NGF (100 ng/ml) or the peptoids N35-4-8C, N6-4-17C and N35-4-17C at different concentrations (1 ng/ml-10 μg/ml) to generate stress and cell death. After 24 h cell viability was studied by determining the amount of yellow MTT (Sigma) that was reduced to insoluble purple formazan. After removing the medium, the water-insoluble formazan was solubilised with DMSO (Sigma), and the dissolved material was measured spectrophotometrically at a wavelength of 570 nm, subtracting the background at 650 nm (Frade, 2005).

C57BL/6 EAE mice [1] = assay: Experimental autoimmune encephalomyelitis (EAE) clinical score; format: in vivo; conditions: daily intraperitoneal, day 0 to day 25
Method: Trials were approved by the Parc Cientific de Barcelona Committee on Animal Care. Female C57BL/6 mice from Harlan (8-12 weeks old) were immunized subcutaneously in both hind pads with 300 μg of myelin oligodendrocyte glycoprotein (MOG) peptide 35-55 (Spikem, Firenze) emulsified with 50 μg of Mycobacterium tuberculosis (H37Ra strain; Difco, Detroit, Mich.) in incomplete Freund's adjuvant (IFA) as previously described (Adams et al. 2007). Mice were intraperitoneally injected with Pertussis toxin (Sigma)(500 ng) at the time of immunization and 2 days later. Animals were weighted and inspected for clinical signs of disease on a daily basis by a blinded observer. Disease severity of EAE was assessed according to the following scale: 0=normal; 0.5=mild limp tail; 1=limp tail; 2=mild parapesis of the hind limbs, unsteady gait; 3=moderate parapesis, voluntary movements still possible; 4=paraplegia or tetraparesis; 5=moribund state. Data shown for the clinical studies are representative of two independent experiments performed with the indicated number of animals (Moreno et al., 2006).
The agonist molecules selected for the animal studies, N35-4-8C, N6-4-17C and N35-4-17C, were prepared in water with 5% DMSO. Animals were treated with the agonist molecule (25, 50 and 100 mg/kg) or placebo (water+5% DMSO) through daily intraperitoneal injection starting after immunization. At the end of the study, mice were anesthetized and perfused intracardially with 4% of paraformaldehyde in 0.1M phosphate buffer (pH 7.6). Brains, spinal cords and spleens were dissected and either fixed or frozen until use. Serum was obtained from all animals included in the study, and transaminases levels were measured.
In order to evaluate the effects of the NGF-like peptoids “in vivo”, we studied the effect of the NGF-mimetic peptoids in the animal model of MS. C57BL/6 mice immunized with MOG35-55 peptide were treated daily with N35-4-8C, N6-4-17C and N35-4-17C intraperitoneally from day 0 to day 25 at a different concentrations of the compound. N35-4-8C was tested at 3 different concentrations selected in base to previous experiments using agonist molecules in animal models: 25 mg/kg, 50 mg/kg and 100 mg/kg. […] N35-4-17C was also tested at the same concentrations. […] Moreover, the treatment had higher clinical scores with a clear worsening in the progression of the disease (FIG. 4C).

C57BL/6 EAE mice [2] = assay: Histological evaluation of brain and spinal cord in EAE mice; format: in vivo; conditions: 100 mg/kg
Method: Histological evaluation was done on paraformaldehyde-fixed, paraffin-embedded sections of brain and spinal cord. Sections 10 μm thick) were stained with hematoxylin and Luxol Fast Blue to assess inflammation and demyelination. Semiquantitative histological evaluation for inflammation and demyelination was conducted and scored blindly using the following scale: 0=normal; 1=1 to 3/section perivascular cuffs with minimal demyelination; 2=3 to 10 perivascular cuffs/section accompanied by moderate demyelination; 3=wide-spread perivascular cuffing, extensive demyelination with large confluent lesions (Villoslada et al., 2001).
Immunohistochemical procedures were performed on 10 μm paraffin-embedded sections of brain and spinal cord as described previously (Villoslada et al., 2001). Primary antibodies were added at concentrations of 1/1000 for MCA500 (rat anti-mouse CD3 from Serotec) and 1/500 for MCA1107 (rat anti-mouse CD4 from Serotec). Specificity of the immunoreaction was determined by incubating sections without the primary antibodies or using the corresponding isotype controls which yielded no immunoreactivity.

[3] = tested on: splenocytes isolated from naïve C57BL/6 mice; assay: Splenocyte proliferation assay (MOG stimulated); format: cell-based; conditions: MOG 10 μg/ml, splenocytes cultured 2 hours with compound before MOG, p<0.05
Method: FIG. 6 depicts effects of N35-4-8C on the peripheral immune response during EAE. […] Splenocytes were cultured for 2 hours with N35-4-8C before MOG addition. Data are means±standard error. *p<0.05 with respect to cells treated with MOG only. FIG. 6B: Gene expression profile of cytokines and inducible nitric oxide synthase (iNOS) assayed by quantitative reverse transcriptase-polymerase chain reaction (RT-PCR) in the spleen of placebo and treated animals at the end of the experiment. Data are expressed as fold change in gene expression levels in the treated groups compared with untreated controls. *p<0.05. IFN=interferon; IL=interleukin; TNF=tumor necrosis factor.
Splenocytes from naïve, non immunized C57BL/6 mice were obtained for in vitro assessment of the effect of N35-4-8C in cell proliferation. Splenocyte proliferation assay was performed as described previously (Martinez-Forero et al., 2008).

## CC(C)CCN(CC(=O)N(CCCN1CCCC1=O)CC(N)=O)C(=O)CNCCc1ccccc1F [N35-4-8C, [N-(2-(2′-Fluorophenyl)ethyl)glycyl]-[N-(3-methylbutyl)glycyl]-N-[3-(2′-oxopyrrolidinyl)propyl]glycinamide]
PC12 cells
  differentiation of PC12 cells: induce the differentiation of PC12 cells at different concentrations to an extent substantially comparable with that induce by NGF
RN22 cells
  survival of RN22 cells (cell viability, MTT): promote survival of RN22 cells
C57BL/6 EAE mice [1]; 25 mg/kg
  EAE clinical severity: no effect in disease clinical severity
C57BL/6 EAE mice [1]; 50 mg/kg
  EAE clinical severity: an effect but more moderate
C57BL/6 EAE mice [1]; 100 mg/kg
  EAE clinical severity: almost a complete prevention of EAE; also recorded: prevents EAE
C57BL/6 EAE mice [2]; day 26, vs placebo, p<0.05
  histological scores at the brain and spinal cord level: significant lower histological scores
C57BL/6 EAE mice [2]; spinal cord, vs placebo
  demyelination areas (Luxol fast blue): decreased
C57BL/6 EAE mice [2]; vs placebo, p<0.05
  inflammatory infiltrates in the brain and the spinal cord: less inflammatory infiltrates
[3]
  MOG specific proliferative response of splenocytes: significantly lower; also recorded: inhibits the proliferation of splenocytes
